Laboratory results from US20050277586A1, “Peptide chemically modified with polyethylene glycol” (priority 2002, published 2005).
pIC50: −log10 of the molar value.

Tests used:
[1] = Affinity for phosphatidyl serine by surface plasmon resonance (Biacore 2000); format: binding; conditions: in the presence of 0.1 mg/mL BSA
Procedure: The specific affinity of the peptide for phosphatidyl serine was evaluated by means of surface plasmon resonance (SPR) using Biacore 2000 (manufactured by Biacore). To be more specific, phosphatidyl choline was immobilized on flow cell 1, and 50% of phosphatidyl serine and 50% of phosphatidyl choline were immobilized on flow cell 2 of HPA chip (manufactured by Biacore), and ability of the peptide to bind to the phospholipid was evaluated in the presence of 0.1 mg/mL BSA to thereby evaluate the affinity.

nuclease Bal 31 = assay: Nuclease resistance-imparting ability for natural (P=O form) oligonucleotide; format: biochemical; conditions: 2 U Bal 31, 30° C., 60 minutes
Procedure: Nuclease resistance-imparting ability for natural (P═O form) oligonucleotide was evaluated. To be more specific, 2 U of nuclease Bal 31 (manufactured by Takara Shuzo) was added to 20 mM Tris-HCl buffer (pH=8) containing 50 μM of the peptide of SEQ ID NO: 1 prepared in Example 1, 3 μM of P═O form oligonucleotide prepared in Example 6, 150 mM NaCl, 12 mM MgCl2, and 12 mM CaC12, and the reaction was allowed to take place at 30° C. for 60 minutes. Next, the oligonucleotide which escaped from the decomposition was extracted with phenol/chloroform, and subjected to electrophoresis by the procedure described in Example 8 to stain the oligonucleotide.

[2] = target: phosphatidyl serine (binding of human Factor VIII); assay: Affinity for phosphatidyl serine (EIA, inhibition of human Factor VIII binding); conditions: in the presence of 5% BSA, human Factor VIII 1 μg/mL
Procedure: The specific affinity of the peptide for phosphatidyl serine was evaluated by measuring activity of the peptide for inhibiting the binding of the human Factor VIII to phosphatidyl serine by using human Factor VIII which is known to bind to phosphatidyl serine but not to phosphatidyl choline in the presence of serum albumin. To be more specific, 100 μL of ethanol solution containing 10 μg/mL of phospholipids at a phosphatidyl serine (manufactured by SIGMA): phosphatidyl choline (manufactured by SIGMA) ratio of 3:7 was added to the wells of a 96 well plate (Immulon I, manufactured by Dynatech), and exsiccated by using a centrifugal evaporator (EC-95C, manufactured by Sakuma Seisakusho) at 40° C. for 40 minutes. 200 μL each of TBS (10 mM Tris-HCl (pH 7.4) containing 1% bovine serum albumin (BSA Fraction V, hereinafter referred to as BSA, manufactured by Seikagaku Corporation) and 0.9% (W/V) NaCl solution were added to each well, and the wells were blocked by allowing the plate to stand at 37° C. for 2.5 hours. After washing the plate with water, 100 μL of TBS solution supplemented with 5% BSA mixed with human Factor VIII (manufactured by American Diagnostica) at a final concentration 1 μg/mL and the peptide of predetermined dose prepared in Example 1 was added to each well, and the reaction was allowed to take place at 4° C. for 24 hours.
After the completion of the reaction, the human Factor VIII that became bound to the phosphatidyl serine was measured by enzyme immunoassay (EIA) in accordance with the general procedure described in a book (“Enzyme Immunoassay (3rd ed.)”, Eiji Ishikawa et al., Igaku-Shoin, 1987). To be more specific, the measurement was conducted by using anti-human Factor VIII mouse monoclonal antibody (ESH8, manufactured by American Diagnostica) for the primary antibody, horseradish peroxidase-labeled anti-mouse IgG antibody (P0260, manufactured by Daco) for the secondary antibody, and tetramethylbenzidine for the chromogenic substrate, and measuring the absorption at a wavelength of 450 nm by using a reference wavelength of 630 nm on a spectrophotometer (NJ-2100, manufactured by Intermed).
Intensity of the affinity of the peptide for the phosphatidyl serine was evaluated by using the value obtained by subtracting the absorption of the well having no human Factor VIII added thereto from the absorption of the well having only the human Factor VIII added thereto as the control value (100%), and designating the peptide concentration at which the value 0.5 was obtained when the value obtained by subtracting the absorption of the well having only the peptide added thereto from the absorption of the well having a mixture of the human Factor VIII and the peptide added thereto were divided by the control value as the IC50 value, and evaluating the intensity to be ++ when the IC50 value was up to 1 μM, and + when the intensity was more than 1 μM but not more than 10 μM. It is to be noted that the specific affinity was evaluated to be none when the intensity was 10 μM or more.

TRYLRIHPRSWVHQIALRLRYLRIHPRSWVHQIALRS [SEQ ID NO: 1]
Binding to flow cell 2 (50% phosphatidyl serine, 50% phosphatidyl choline) and flow cell 1 (phosphatidyl choline) [1]: stronger | Nuclease resistance-imparting ability for natural (P=O form) oligonucleotide (nuclease Bal 31): exhibit nuclease resistance-imparting ability | pIC50 [2]: > 6.00
